Patent US20230293473A1, “THERAPEUTIC DRUG FOR DISEASE CAUSED BY INTESTINAL IMMUNE DISORDER” (KEIO UNIVERSITY, priority 2020, published 2023)

How the values were obtained:
HVx mice = experiment: In vivo administration of bethanechol, GTS-21 or MLA to HVx mice; colonic APC and Treg phenotypes
Description: Bilateral or unilateral (left or right) subdiaphragmatic vagotomy was performed as previously reported (FIGS. 5c and 5d)^52. A midline incision was made to provide wide exposure of the upper abdominal organ in male mice anesthetized with the combination of medetomidine, midazolam, and butorphanol. The bilateral subdiaphragmatic trunks of vagal nerves along the esophagus were exposed and cut. In the sham operation group, these vagal trunks were exposed but not cut. Selective hepatic vagotomy (HVx) was performed as described (FIG. 7)^25. The ventral subdiaphragmatic vagal trunk was exposed as described above under anesthesia. […]
FIG. 3 The liver-brain-gut axis regulates colonic Treg homeostasis through muscarinic signaling in APC. a-d, WT and mAChR TKO mice were subjected to Sham or HVx. e, WT and mAchR TKO mice were subjected to Sham or HVx and injected additionally treated with bethanechol (BETH; i.p. 300 μg/day) every day. Phenotypes of colonic immune cell were analyzed at day 2 after surgery (n=5/group). a, Frequency of ALDH^+ cells among MHC-II^+ colonic APCs. […] Quantification (right panel). b, Aldh1a1 and Aldh1a2 mRNA expression in colonic APC. c, e, Frequency of Foxp3^+ cells among CD4^+ cells in the colon. d, Frequency of RORγt^+ cells among colonic Foxp3^+ Tregs. […]

[1] = system: hepatic vagal sensory afferents; experiment: Selective hepatic vagal afferent blockade by perivagal application of capsaicin; colonic Treg and APC analysis; assay type: in vivo, mice; details: perivagal capsaicin 10 mg/ml, 30 minutes; day 2
Description: The hepatic branch of the vagal trunk was freed from the surrounding tissues by paraffin paper and then wrapped for 30 minutes with cotton bud soaked with vehicle (Tween 80: olive oil=1:9) alone or 10 mg/ml capsaicin dissolved in the vehicle solution. The cotton string was removed 30 minutes later and the abdominal incision was closed^28. Aldehyde dehydrogenase (ALDH) activity was determined using ALDEFLUOR staining kit according to the manufacturer's protocol. In brief, cells were suspended at a concentration of 10^6 cells/ml in ALDEFLUOR assay buffer containing activated ALDEFLUOR substrate (final concentration of 1.5 μM) with or without the ALDH inhibitor diethylaminobenzaldehyde (DEAB) (final concentration of 15 μM) and incubated at 37° C. for 30 minutes. […] Phenotypic analysis of T cell and APC in colon was performed at day 2 after application of capsaicin (c, d, n=16/group; e, f, n=8/group). a, b, Representative fluorescence images of TRPV1 (red) and DAPI (blue) in NG (a) and Th4-DRG (b). […] Quantification (right panel). d, Frequency of RORγt^+ cells among colonic Foxp3^+ Tregs. […] TRPV1^+ nerves in spinal cord (Th4-7 and Th13) and colonic immune cells were analyzed at day 7 after administration. g, Fluorescent immunohistochemistry of TRPV1^+ neuron in spinal cord (bar: 200 μm). […]

[2] = system: common hepatic branch of the vagus nerve; experiment: pERK immunostaining in nodose ganglion after capsaicin deafferentation of the common hepatic branch of the vagus nerve; assay type: in vivo, mice
Description: The hepatic branch of the vagal trunk was freed from the surrounding tissues by paraffin paper and then wrapped for 30 minutes with cotton bud soaked with vehicle (Tween 80: olive oil=1:9) alone or 10 mg/ml capsaicin dissolved in the vehicle solution. The cotton string was removed 30 minutes later and the abdominal incision was closed^28. pEKR1/2 and c-Fos expression were analyzed immunohistochemically as reported 1. DSS-treated mice were transcardially perfused with PBS including 4% paraformaldehyde and 0.2% picric acid under anesthesia. The nodose ganglions and brains were collected, post-fixed in the same fixative for 2 hours to overnight at 4° C. and then incubated in phosphate buffer containing 30% sucrose for 48 hours. Longitudinal sections (8 μm) of NGs were cut with 48 μm intervals using a precision cryostat (Leica Microsystems, IL). Coronal sections (40 μm) of hindbrain were cut with 120 μm intervals using a freezing microtome. Rabbit polyclonal antibody to pERK1/2 (1/500) and Alexa 488-conjugated goat anti-rabbit IgG (1/500) were used. Fluorescence images were acquired with BX50 microscope and DP50 digital camera (Olympus). […] Neurons immunoreactive to pERK1/2 and c-Fos in medial NTS were counted. […] Representative fluorescence images of Alexa Fluor 488^+ neuron (green) and DAPI (blue) in NG at 1 week after injection of WGA in liver (c) and quantification (d). […]

colonic APCs = experiment: In vitro Treg induction assay: naive CD4+ cells with colonic APCs in the presence of muscarine; assay type: cell-based; details: colonic APCs from WT mice precultured with muscarine
Description: Naive CD4^+ cells were isolated from spleen in WT mice using naive CD4^+ T cell isolation kit. Naive CD4^+ cells (1×10^5) were cultured in RPMI-1640 medium supplemented with 10% FBS, 2 mM glutamine, 100 U/ml penicillin, 100 µg/ml streptomycin, and 55 μM 2-mercaptoethanol in 96 well plate.
a, Three-dimensional reconstruction of CX3CR1^+ APC (green) and enteric neurons (purple) in colon in mice. b, Three-dimensional reconstruction of MHCII^+ APC (green), enteric Tuj^+ neurons (purple), and Foxp3^+ Tregs (yellow). c, d, Anatomical diagram (c) and operative field (d) for subdiaphragmatic truncal vagotomy. e, f, Colonic T cell phenotypes in mice after VGx surgery. […] Quantification (n=6/group). […]

CC(C[N+](C)(C)C)OC(N)=O (stereo not drawn) [bethanechol]
frequency of pTregs (HVx mice; HVx WT mice, BETH i.p. 300 μg/day): increased | Aldh1a1 and Aldh1a2 expression in colonic APCs (HVx mice; HVx mice compared with sham-operated mice, BETH i.p. 300 μg/day for 2 days): restored

COc1cc(CNC(=O)CCCC/C=C/C(C)C)ccc1O [capsaicin]
aldehyde dehydrogenase activity in APCs [1]: reduced | colonic Treg numbers [1]: reduced | number of pERK positive cells in the left NG [2]: significantly reduced

C[C@@H]1O[C@H](C[N+](C)(C)C)C[C@H]1O [muscarine]
generation of Foxp3+ Tregs (colonic APCs): enhanced
